These results are taken from patent US9708336B2, “Metallo-beta-lactamase inhibitors” (priority 2014, dated 2017).

Molecules are shown by their SMILES. Like-named read-outs stand apart in the source and are kept apart here.

One assay deals with NDM-1 (Klebsiella pneumoniae, UniProt C7C422). The assay can be described thus: biochemical. The format is biochemical. The conditions noted are these: read-out: NDM-1 IC50.
The target of the next assay is IMP-1 (Serratia marcescens, UniProt P52699). Nature of the assay: biochemical. The format is biochemical. To be noted: read-out: IMP-1 IC50.
Sequence of IMP-1 (P52699 whole entry, looked up): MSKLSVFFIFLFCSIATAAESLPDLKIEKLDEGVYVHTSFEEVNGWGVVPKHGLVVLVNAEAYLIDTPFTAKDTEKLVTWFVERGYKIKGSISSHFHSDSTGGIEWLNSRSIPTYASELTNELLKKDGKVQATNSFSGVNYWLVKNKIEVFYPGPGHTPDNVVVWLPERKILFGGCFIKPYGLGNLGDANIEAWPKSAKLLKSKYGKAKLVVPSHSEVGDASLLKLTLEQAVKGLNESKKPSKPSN
The target in a further assay is VIM-1 (Pseudomonas aeruginosa (strain ATCC 15692 / DSM 22644 / CIP 104116 / JCM 14847 / LMG 12228 / 1C / PRS 101 / PAO1), UniProt A0A0F7KYQ8). The assay can be described thus: Enzyme activity: determination of IC50, fluorescence assay with CCF2-FA substrate (VIM-1). It is filed as biochemical.
For assay [1], the system named is Escherichia coli expressing NDM-1 (CLB30016). The assay can be described thus: Antibiotic potentiation activity: synergistic concentration (MITC95) with imipenem, OD600 growth. It is filed as cell-based. In outline:
(§1)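 Each strain, suspended in saline from overnight colonies and diluted 1:100 into 1.1× CAMHB, is dosed with imipenem at 4 μg/ml (or 1 μg/ml) plus compound, incubated 22–24 h at 35 °C and read by absorbance.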

For assay [2], the system named is Klebsiella pneumoniae expressing VIM-1 (IHMA599644). The description is as above. The format is cell-based. An outline of the steps:
as §1

For assay [3], the system named is Serratia marcescens expressing IMP-1 (CL5741). The description is as above. It is filed as cell-based. In outline:
as §1

Setting [4] is: NDM-1 enzyme, CCF2-FA substrate.
Where [5] appears, read: IMP-1 enzyme, CCF2-FA substrate.
Setting [6] is: VIM-1 enzyme, CCF2-FA substrate, read-out: VIM-1 IC50.
Setting [7] is: (CLB30016, NDM-1), 95% growth inhibition.
The mark [8] stands for this setting: Klebsiella pneumoniae IHMA599644 (VIM-1), 95% growth inhibition.
The mark [9] stands for this setting: Serratia marcescens CL5741 (IMP-1), 95% growth inhibition.
The mark [10] stands for this setting: fluorescence assay with CCF2-FA substrate.
Setting [11] is: VIM-1 IC50, VIM-1 enzyme, CCF2-FA substrate.
Setting [12] is: NDM-1 enzyme, CCF2-FA fluorescence assay.
[13] abbreviates: IMP-1 enzyme, CCF2-FA fluorescence assay.
Where [14] appears, read: VIM-1 enzyme, CCF2-FA fluorescence assay, read-out: VIM-1 IC50.
[15] abbreviates: Escherichia coli expressing NDM-1 (CLB30016), 95% growth inhibition.
Setting [16] is: Klebsiella pneumoniae expressing VIM-1 (IHMA599644), 95% growth inhibition.
[17] abbreviates: Serratia marcescens expressing IMP-1 (CL5741), 95% growth inhibition.

Sequence of NDM-1 (C7C422 whole entry, looked up, species assumed): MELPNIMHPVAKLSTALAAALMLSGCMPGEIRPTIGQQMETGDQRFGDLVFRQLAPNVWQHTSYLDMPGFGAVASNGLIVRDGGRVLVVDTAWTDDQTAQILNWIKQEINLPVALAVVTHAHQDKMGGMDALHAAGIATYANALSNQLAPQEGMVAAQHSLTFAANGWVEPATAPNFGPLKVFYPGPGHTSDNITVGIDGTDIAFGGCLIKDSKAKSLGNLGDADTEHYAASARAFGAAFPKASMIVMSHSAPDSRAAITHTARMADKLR

The IC50 is the midpoint of a concentration-inhibition curve. As for `NS(=O)(=O)c1c(C(F)(F)F)ccc([C@H]2CC[C@H](NC3CCC4(CCNCC4)CC3)CC2)c1-c1nnn[nH]1` [Example 689, 3-[4-(3-azaspiro[5.5]undec-9-ylamino)cyclohexyl]-2-(1H-tetrazol-5-yl)-6-(trifluoromethyl)benzene sulfonamide], the IC50 at NDM-1 (setting [4]) turned out to be 26.8 nM; at IMP-1 (setting [5]), 52.1 nM; at VIM-1 (setting [6]), 6.43 nM. Besides, the “Escherichia coli MITC95” value in assay [1] (setting [7]) amounted to 6.25 µM. For the same molecule, in assay [2] (setting [8]), the “Klebsiella pneumoniae MITC95” value was found to be 12.5 µM. Further, in assay [3] (setting [9]), the “Serratia marcescens MITC95” value came to 6.25 µM.
Turning to `NCCC1CCC(N[C@H]2CC[C@H](c3ccc(C(F)(F)F)c(S(N)(=O)=O)c3-c3nnn[nH]3)CC2)CC1` (stereo partly drawn) [Example 693, 3-(4-{[4-(2-aminoethyl)cyclohexyl]a-mino}cyclohexyl)-2-(1H-tetrazol-5-yl)-6-(trifluoromethyl)benzene sulfonamide], the half-maximal inhibitory concentration (IC50) at NDM-1 (setting [4]) worked out at 36.9 nM; at IMP-1 (setting [5]) it was 97.8 nM; on VIM-1 (setting [6]), 11.6 nM. Moreover, the “Escherichia coli MITC95” value in assay [1] (setting [7]) turned out to be 3.125 µM. The “Klebsiella pneumoniae MITC95” value in assay [2] (setting [8]) turned out to be 12.5 µM. Also, the “Serratia marcescens MITC95” value in assay [3] (setting [9]) turned out to be 6.25 µM.
As to `NS(=O)(=O)c1c(C(F)(F)F)ccc([C@H]2CC[C@H](C3CCNCC3)CC2)c1-c1nnn[nH]1` [Example 832, 3-((1r,4r)-4-(piperidin-4-yl)cyclohexyl)-2-(1H-tetrazol-5-yl)-6-(trifluoromethyl)benzenesulfonamide], the IC50 at NDM-1 (setting [10]) came out at 0.501 nM; at IMP-1 (setting [10]), 1.46 nM; at VIM-1 (fluorescence assay with CCF2-FA substrate, read-out: VIM-1 IC50) it was 0.212 nM. For the same molecule, the “Escherichia coli MITC95” value in assay [1] (CLB30016 (NDM-1), 95% inhibition of bacterial growth) is 1.563 µM. Also, the “Klebsiella pneumoniae MITC95” value in assay [2] (IHMA599644 (VIM-1), 95% inhibition of bacterial growth) was 4.688 µM. The “Serratia marcescens MITC95” value in assay [3] (CL5741 (IMP-1), 95% inhibition of bacterial growth) came out at 3.125 µM.
Turning to `NS(=O)(=O)c1c(C(F)(F)F)ccc(-c2cnc3[nH]ccc3c2)c1-c1nnn[nH]1` [Example 708, 3-(1H-pyrrolo[2,3-b]pyridin-5-yl)-2-(1H-tetrazol-5-yl)-6-(trifluoromethyl)benzenesulfon-amide], the IC50 was 0.38 nM on NDM-1 (setting [4]), 1.6 nM on IMP-1 (setting [5]) and 0.144 nM at VIM-1 (setting [6]). Besides, the “Escherichia coli MITC95” value in assay [1] (setting [7]) turned out to be 1.563 µM. For the same molecule, in assay [2] (setting [8]), the “Klebsiella pneumoniae MITC95” value came out at 6.25 µM. Also, in assay [3] (setting [9]), the “Serratia marcescens MITC95” value came to 6.25 µM.
`NCc1ccc(-c2ccc(CC3CCNCC3)c(S(N)(=O)=O)c2-c2nn[nH]n2)cc1` [Example 593, 4′-(aminomethyl)-4-(piperidin-4-ylmethyl)-2-(2H-tetrazol-5-yl)biphenyl-3-sulfonamide]: the values for the half-inhibitory concentration (IC50) on NDM-1 (setting [4]), at IMP-1 (setting [5]) and at VIM-1 (setting [6]) were 38.2 nM, 273 nM and 31.6 nM, respectively. Besides, the “Escherichia coli MITC95” value in assay [1] (setting [7]) came out at 1.563 µM. Also, in assay [2] (setting [8]), the “Klebsiella pneumoniae MITC95” value stood at 3.125 µM. The “Serratia marcescens MITC95” value in assay [3] (setting [9]) is 6.25 µM.
`NS(=O)(=O)c1cccc(-c2ccc(N3CC(CN4CCCC4)C3)nc2)c1-c1nnn[nH]1` [Example 630, 3-[6-[3-(pyrrolidin-1-ylmethyl)azetidin-1-yl]-3-pyridyl]-2-(1H-tetrazol-5-yl)benzenesulfonamide]: the figures for the half-inhibitory concentration (IC50) on NDM-1 (setting [4]), on IMP-1 (setting [5]) and on VIM-1 (setting [6]) were 32.3 nM, 388 nM and 635 nM, respectively. In assay [1] (setting [7]), the “Escherichia coli MITC95” value was determined as 1.172 µM. For the same molecule, the “Klebsiella pneumoniae MITC95” value in assay [2] (setting [8]) came to 50 µM. Also, the “Serratia marcescens MITC95” value in assay [3] (setting [9]) was 12.5 µM.
Consider `NCCN1CCC(Cc2ccc(-c3ccc(C4CNC4)cc3)c(-c3nn[nH]n3)c2S(N)(=O)=O)CC1` [Example 606, 6-[[1-(2-aminoethyl)-4-piperidyl]methyl]-3-[4-(azetidin-3-yl)phenyl]-2-(2H-tetrazol-5-yl)benzenesulfonamide], for which the values for the IC50 at NDM-1 (setting [4]), at IMP-1 (setting [5]) and at VIM-1 (setting [11]) were 17.7 nM, 51.4 nM and 1.12 nM, respectively. For the same molecule, the “Escherichia coli MITC95” value in assay [1] (setting [7]) worked out at 0.7813 µM. In assay [2] (setting [8]), the “Klebsiella pneumoniae MITC95” value turned out to be 1.563 µM. The “Serratia marcescens MITC95” value in assay [3] (setting [9]) is 3.125 µM.
Take `Nc1nc2ccc(-c3ccc(C(F)(F)F)c(S(N)(=O)=O)c3-c3nnn[nH]3)cc2[nH]1` [Example 552, 3-(2-amino-3H-benzimidazol-5-yl)-2-(1H-tetrazol-5-yl)-6-(trifluoromethyl)benzenesulfonamide]: the half-inhibitory concentration (IC50) worked out at 1.32 nM at NDM-1 (setting [4]), 7.2 nM at IMP-1 (setting [5]) and 0.262 nM against VIM-1 (setting [11]). Moreover, the “Escherichia coli MITC95” value in assay [1] (setting [7]) was determined as 0.3906 µM. The “Klebsiella pneumoniae MITC95” value in assay [2] (setting [8]) was found to be 1.563 µM. In assay [3] (setting [9]), the “Serratia marcescens MITC95” value turned out to be 1.563 µM.
For `NS(=O)(=O)c1cccc(-c2ccc(CN3CCNC(=O)C3)cc2)c1-c1nnn[nH]1` [Example 386, 4′-[(3-oxopiperazin-1-yl)methyl]-2-(1H-tetrazol-5-yl)biphenyl-3-sulfonamide], the IC50 on NDM-1 (setting [12]) turned out to be 3.23 nM; at IMP-1 (setting [13]) it was 32 nM; at VIM-1 (setting [14]), 120 nM. For the same molecule, the “Escherichia coli MITC95” value in assay [1] (setting [15]) is 6.25 µM. The “Klebsiella pneumoniae MITC95” value in assay [2] (setting [16]) is over 200 µM. Also, the “Serratia marcescens MITC95” value in assay [3] (setting [17]) came out at 1.563 µM.
Take `CN1CCC(NCc2ccc(-c3cccc(S(N)(=O)=O)c3-c3nnn[nH]3)cc2)C1=O` (stereo not drawn) [Example 349, 4′-{[(1-methyl-2-oxopyrrolidin-3-yl)amino]methyl}-2-(1H-tetrazol-5-yl)biphenyl-3-sulfonamide]: the IC50 at NDM-1 (setting [12]) stood at 4.32 nM; on IMP-1 (setting [13]), 61.1 nM; on VIM-1 (VIM-1 IC50, VIM-1 enzyme, CCF2-FA fluorescence assay), 637 nM. Further, the “Escherichia coli MITC95” value in assay [1] (setting [15]) was 6.25 µM. The “Klebsiella pneumoniae MITC95” value in assay [2] (setting [16]) is over 200 µM. Besides, the “Serratia marcescens MITC95” value in assay [3] (setting [17]) is 2.344 µM.
Consider `CN(CCO)Cc1ccc(-c2cccc(S(N)(=O)=O)c2-c2nnn[nH]2)cc1` [Example 335, 4′-(((2-hydroxyethyl)(methyl)amino)methyl)-2-(1H-tetrazol-5-yl)-[1,1′-biphenyl]-3-sulfonamide], for which the IC50 at NDM-1 (setting [12]) amounted to 15 nM; on IMP-1 (setting [13]) it was 228 nM; on VIM-1 (setting [14]), 227 nM. For the same molecule, the “Escherichia coli MITC95” value in assay [1] (setting [15]) is 0.3906 µM. For the same molecule, the “Klebsiella pneumoniae MITC95” value in assay [2] (setting [16]) was found to be 25 µM. In assay [3] (setting [17]), the “Serratia marcescens MITC95” value came out at 3.125 µM.
In the case of `CN(CC(=O)O)Cc1ccc(-c2cccc(S(N)(=O)=O)c2-c2nnn[nH]2)cc1` [Example 364, N-methyl-N-{[3′-sulfamoyl-2′-(1H-tetrazol-5-yl)biphenyl-4-yl]methyl}glycine], the values for the IC50 at NDM-1 (setting [12]), on IMP-1 (setting [13]) and on VIM-1 (setting [14]) were 9.17 nM, 100 nM and 212 nM, respectively. Moreover, the “Escherichia coli MITC95” value in assay [1] (setting [15]) came to 1.563 µM. The “Klebsiella pneumoniae MITC95” value in assay [2] (setting [16]) was 25 µM. Also, the “Serratia marcescens MITC95” value in assay [3] (setting [17]) is 3.125 µM.
With `NC(=O)Cc1ccc(-c2ccc(C(F)(F)F)c(S(N)(=O)=O)c2-c2nn[nH]n2)cc1` [Example 448, 2-(3′-sulfamoyl-2′-(2H-tetrazol-5-yl)-4′-(trifluoromethyl)-[1,1′-biphenyl]-4-yl)acetamide], the IC50 on NDM-1 (setting [12]) was 2.1 nM; on IMP-1 (setting [13]), 2.17 nM; on VIM-1 (setting [14]), 0.962 nM. Moreover, the “Escherichia coli MITC95” value in assay [1] (setting [15]) stood at 3.125 µM. Besides, in assay [2] (setting [16]), the “Klebsiella pneumoniae MITC95” value worked out at 6.25 µM. Moreover, the “Serratia marcescens MITC95” value in assay [3] (setting [17]) was 0.1953 µM.
`NS(=O)(=O)c1c(C(F)(F)F)ccc(-c2ccc(C3CCNC3)cc2)c1-c1nn[nH]n1` (stereo not drawn) [Example 443, 4′-(pyrrolidin-3-yl)-2-(2H-tetrazol-5-yl)-4-(trifluoromethyl)-[1,1′-biphenyl]-3-sulfonamide]: the IC50 at NDM-1 (setting [12]) came to 0.909 nM; on IMP-1 (setting [13]), 1.34 nM; at VIM-1 (setting [14]), 0.497 nM. Further, the “Escherichia coli MITC95” value in assay [1] (setting [15]) stood at 0.7734 µM. Besides, the “Klebsiella pneumoniae MITC95” value in assay [2] (setting [16]) is 0.8906 µM. In assay [3] (setting [17]), the “Serratia marcescens MITC95” value was found to be 0.09375 µM.
